Experiments:
ureter and urethra = details: orally administered and locally injected; cited from earlier work
[1] = Drug release study of coated stents in PBS (UV spectroscopy at 243 nm); type: physicochemical; details: approx. 3 cm coated silicone stents, room temperature, 24-hour intervals
Description: Drug release studies were then performed to determine the amount of halofuginone released by the coated stents, and the timing of drug release. Stents approximately 3 cm in length were coated with halofuginone using our proprietary technique. These stents were then placed in PBS solution at room temperature for 24-hour intervals. After each 24-hour interval, the stents were placed in a new PBS solution, and the previous solution was analyzed for halofuginone concentration using UV spectroscopy (absorption at 243 nm). This process was continued daily until the amount of halofuginone in the PBS dropped to immeasurable levels.

[2] = oral doses of up to 3.5 mg/day; cited from earlier work
[3] = rat, in vivo
Description: HF Analysis in Local Tissues and Serum (in Rat): The tissue specimens were morcellated, incubated for 24 hours in 40 mL of PBS, centrifuged, and a sample was taken for HF concentration analysis via spectrophotometry. Blood was also drawn (1 mL) from the heart post-mortem, added to 5 mL of PBS, centrifuged, and the serum analyzed for HF concentration via spectrophotometry.

In the case of O=C(CC1NCCCC1O)Cn1cnc2cc(Br)c(Cl)cc2c1=O (centres unmarked) [halofuginone, 7-bromo-6-chloro-3-[3-(3-hydroxy-2-piperidinyl)-2-oxopropyl]-4(3H)], the “collagen deposition and stricture formation” value (ureter and urethra) is listed as “prevent collagen deposition and stricture formation”, the “duration of sustained release of halofuginone from the stents” value [1] is listed as “approximately 4 days” and the release profile [1] is listed as “large burst release the first 24 hours”. The tolerability [2] was “minimal ill effects” and the “difference between HF levels in serum vs penile tissue” value [3] was “almost a ten-fold difference”.

Source: patent publication US20090028920A1, “UROLOGICAL DEVICES INCORPORATING COLLAGEN INHIBITORS” (Wake Forest University Health Sciences, priority 2006, published 2009)
